Laboratory results reported in US12234258B2, “Timosaponin compounds” (priority 2012, dated 2025).
Like-named read-outs stand apart in the source and are kept apart here.

Key:
[1] = test system: Aβ42, Aβ40 and Aβ38 in N2A-APPswe cells; test: Aβ42, Aβ40 and Aβ38 profiles in conditioned medium by ELISA; format: cell-based; conditions: FIG. 18, 18 hr
Description: Aβ ELISA: Aβ concentrations in conditioned medium were assayed using ELISA kits for human Aβ40, human Aβ42 (ultrasensitive) (Invitrogen) and Aβ38 (MyBioSource).
Cells were treated with various concentrations of (TAIII/TAI/AA/TAV) and DMSO vehicle (C) for 18 hr. In part A of FIG. 18, the expression of full length (FL) and CTF (c99 and c83) in cell lysates and secreted APP (sAPPα and sAPPP) in the conditioned medium were examined by immunoblot using methods specified in Example 6. In part B of FIG. 18, the profiles of Aβ42, Aβ40 and Aβ38 in the conditioned medium were determined by ELISA using methods specified in Example 5.

[2] = test system: APP processing (FL APP, β-CTF, secreted Aβ) in SweAPP N2A cells; test: Immunoblot analysis of APP processing in SweAPP N2A cells; format: cell-based; conditions: treated SweAPP N2A cells
Description: Cells obtained from Example 5 were washed with phosphate buffered saline and lysed with buffer containing Tris-Cl (50 mM, pH 7.4), NaCl ([…]), TRITON™ X-100 (1%) supplemented with protease inhibitors. Equal amount of proteins (30 μg) was resolved by 16.5% Tris-tricine gels and then transferred to nitrocellulose membrane with 0.2 µm pore size. For detection of secreted Aβ, 50 μL of the conditioned medium was mixed with sodium dodecyl sulfate (“SDS”) sample buffer and resolved accordingly. The membrane was blocked with Tris-buffered saline containing TWEEN™20 (0.1%) and bovine serum albumin (“BSA”) (3%) and then incubated with primary antibodies at 4° C. overnight, followed with appropriate secondary antibodies for 2 hours. The primary antibodies used included rabbit APP c-terminal antibody with 1:5000 dilution (obtained from Merck Bioscience) for detection of full length (“FL”) and CTFs, and mouse monoclonal 6E10 (obtained from Covance) for detection of secreted Aβ. The immunoreactivities were detected using enhanced chemiluminescence reagents (manufactured by GE Health care).
Immunoblot analysis: Cells were washed with phosphate buffered saline and lysed with buffer containing 50 mM Tris-Cl, pH 7.4, 150 mM NaCl, 1% Triton X-100 supplemented with protease inhibitors. Equal amount of proteins (30 μg) was resolved by 16.5% Tris-tricine gels and then transferred to nitrocellulose membrane with 0.2 µm pore size. For detection of secreted Aβ, sAPPα and sAPPβ, cells were treated with the timosaponins for 8 hr in complete medium which were then replaced with medium containing 0.1% FBS. After further incubation of 16 hr, 50 μL of the conditioned medium was mixed with SDS sample buffer and resolved accordingly. The membrane was blocked with Tris-buffered saline containing 0.1% TWEEN® 20 and 3% BSA and then incubated with primary antibodies at 4° C. overnight, followed with appropriate secondary antibodies for 2 hr. […] The immunoreactivities were detected using enhanced chemiluminescence reagents (GE Health care). […]

[3] = test system: SW480, human colon adenocarcinoma cells; test: Growth of cancer cell lines: SW480; format: cell-based; conditions: mean ± S.D., n = 3; read-out: IC50 against growth of SW480
[4] = test system: HepG2, human hepatoma cells; test: Growth of cancer cell lines: HepG2; format: cell-based; conditions: mean ± S.D., n = 3; read-out: IC50 against growth of HepG2
Neuro-2A cells = test: Neurite outgrowth of N2A cells; format: cell-based
Description: Immunofluorescence examination of neurite outgrowth: Neuro-2A cells were seeded at 1×10^5 cells per glass bottom dish. After treatment, cells were fixed with 4% paraformaldyde for 10 min, permeabilized with 0.1% Trition X-100, and then blocked with 1% BSA in PBS. The cells were incubated with monoclonal antibody raised against type III β-tubulin (Sigma) for 1 hr followed by Alexa488 conjugated secondary antibody. Neurite morphology was examined under fluorescence microscope.

[5] = test system: SH-SY5Y neuronal cells transfected with mRFP-LC3; test: Colocalization of exogenous labeled Aβ1-42 with mRFP-LC3 autophagic compartments; format: cell-based, Human; conditions: 5 μM, 16 hours
[6] = target: T1, BACE activity in cell lysates (Mus musculus, UniProt P56818); test: BACE (β-secretase) activity in cell lysates; format: biochemical; conditions: cells treated with compound
T1 construct: endogenous in cells; host or cells: N2A-APPswe (Neuro-2A cells expressing Swedish mutant APP)
Description: (§1) β-Secretase assays: Confluent N2A-APPswe cells were harvested and homogenized with 50 mM MES, pH 5.5. Protein extracts (10 μg) were incubated with TAIII for 1 hr at room temperature. The β-secretase activities were assayed by adding 10 μM fluorogenic β-secretase substrate (Millipore) to the reaction mixtures and fluorescence signals (excitation, 380 nm; emission, 460 nm) were measured. β-Secretase assays were also performed using purified BACE1 (Millipore) at 100 ng in a buffer of 50 mM MES, pH 5.5.

[7] = test system: Aβ1-42 production in SweAPP N2A cells (N2A-APPswe); test: Aβ1-42 ELISA of conditioned medium of SweAPP N2A cells; format: cell-based
Description: Neuro-2A cells expressing Swedish mutants of (“SweAPP N2A cells”) was cultured in minimal essential medium with glutamine (2 mM), pyruvate (2 mM) and fetal bovine serum (10%). Cells were seeded at 6-well plate at 1×10^6 cells/mL and grown overnight. The medium was replaced.
Conditioned medium was diluted with 2 part volume of ELISA diluents. Aβ1-42 concentrations were determined by using human Aβ1-42 ultrasensitive ELISA kit (manufactured by Invitrogen).

[8] = test system: NCI-H460, human non-small lung carcinoma cells; test: Growth of cancer cell lines: NCI-H460; format: cell-based; conditions: mean ± S.D., n = 3; read-out: IC50 against growth of NCI-H460
[9] = test system: HeLa, human cervical carcinoma cells; test: Growth of cancer cell lines: HeLa; format: cell-based; conditions: mean ± S.D., n = 3; read-out: IC50 against growth of HeLa
SweAPP N2A cells = test: Cell viability of SweAPP N2A cells; format: cell-based; conditions: at concentrations that significantly inhibited Aβ production
Description: Cells were treated with timosaponins or other test compounds, and the conditioned medium was collected and subjected to measurement of secreted Aβ and N-terminal secreted APP (sAPPα and sAPPβ) by ELISA using specific antibodies pair targeting to respective fragments. Lysates from cells treated with timosaponins were subjected to immunoblot analysis using antibodies against c-terminal of APP to detect the full length APP, α-CTF and β-CTF. Cell viability and cytotoxicity are examined by MTT and LDH release assays, respectively. Cell culture: Neuro-2A cells expressing Swedish mutants of APP (N2A-APPswe) ENREF 12 was cultured in minimal essential medium with 2 mM glutamine, 2 mM pyruvate and 10% fetal bovine serum. Cells were seeded at 6-well plate at 1×10^6 cells/mL and grown for two days until confluence. The medium was replaced and the test compounds were added at indicated concentrations for 24 hr. Cell viability was measured by standard MTT assays.

purified BACE1 enzyme = target: T2, purified BACE1 enzyme (Homo sapiens, UniProt P56817); test: Purified BACE1 enzyme activity; format: biochemical; conditions: up to 100 μM
T2 construct: purchased Millipore
Description: as §1

T2 sequence (P56817 46-501, species assumed): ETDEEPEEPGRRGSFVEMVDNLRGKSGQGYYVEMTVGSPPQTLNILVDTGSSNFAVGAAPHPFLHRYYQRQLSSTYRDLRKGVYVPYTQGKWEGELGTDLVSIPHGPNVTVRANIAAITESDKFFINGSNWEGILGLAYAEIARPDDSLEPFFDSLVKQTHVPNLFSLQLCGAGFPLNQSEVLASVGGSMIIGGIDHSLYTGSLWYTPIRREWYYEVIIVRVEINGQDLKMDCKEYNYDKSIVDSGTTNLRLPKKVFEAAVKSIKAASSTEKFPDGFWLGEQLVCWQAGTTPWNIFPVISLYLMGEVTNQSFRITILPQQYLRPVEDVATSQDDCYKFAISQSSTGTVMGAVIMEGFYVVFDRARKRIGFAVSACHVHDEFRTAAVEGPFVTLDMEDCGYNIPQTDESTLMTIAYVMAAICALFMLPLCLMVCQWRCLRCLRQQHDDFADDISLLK
T1 sequence (P56818 46-501): as the sequence (P56817 46-501, species assumed) above, with P6S, V162I, L165I, S180T, V182A, I340V, L393A, Q443H counted along it

C[C@H]1CC[C@@]2(OC1)O[C@H]1C[C@H]3[C@@H]4CC[C@@H]5C[C@@H](O[C@@H]6O[C@H](CO)[C@H](O)[C@H](O)[C@H]6O[C@@H]6O[C@H](CO)[C@@H](O)[C@H](O)[C@H]6O)CC[C@]5(C)[C@H]4CC[C@]3(C)[C@H]1[C@@H]2C [Timosaponin AIII]
Aβ profile (Aβ42 vs Aβ40 and Aβ38) [1]: preferentially lower Aβ42 production | Aβ immunoreactivities in the conditioned medium [2]: concomitant decrease | FL APP expression [2]: without significant changes | Intracellular APP β-CTF expression [2]: significantly decreased | IC50 [3]: 12.2 ± 0.28 µM | IC50 [4]: 7.28 ± 0.56 µM | Neurite outgrowth (Neuro-2A cells; Example 8, 5 μM, 18 hours, N2A cells): significant extension and branching neuritis | Neurite outgrowth (Neuro-2A cells; FIG. 19, TAIII 5 μM, TAI 10 μM, SSG 25 μM, 18 hr, type III β-tubulin staining): significant extension and branching of neurites | Colocalization of fluorophore labeled Aβ1-42 with mRFP-LC3 associated autophagic compartments [5]: significantly colocalized | BACE activity in cell lysates [6]: no change | IC50 ([7]; Example 5, SweAPP N2A cells, 18 hours, ELISA, read-out: IC50, reduction of Aβ1-42 peptide secretion): 2 µM | IC50 ([7]; Example 9, SweAPP N2A cells, Aβ1-42 ELISA, read-out: ICS50, inhibitor of Aβ production): 2.5 µM | IC50 ([7]; Table 4, N2A-APPswe cells, mean ± S.D, n ≥ 3, read-out: IC50 in lowering Aβ42 production): 2.3 ± 0.2 µM | IC50 [8]: 6.9 ± 0.31 µM | IC50 [9]: 7.47 ± 2.39 µM | Cell viability (SweAPP N2A cells): did not affect the cell viability | Activity of purified BACE1 enzyme (purified BACE1 enzyme): not affected
